Data as given in patent US20240109914A1, “IMIDAZOTHIAZOLE COMPOUNDS AND ANALOGS THEREOF AND METHODS FOR TREATING NEMATODE INFECTIONS IN PLANTS” (The Governing Council of The University of Toronto, priority 2021, published 2024).
Read-outs that look alike come from different tables or passages of the source.

Experiments:
[1] = system: M. incognita J2 larvae; experiment: Meloidogyne incognita in vitro larval mobility assay; assay type: in vivo; details: 45 μM, 4 days; for Replicate 1 z-score / Replicate 2 z-score: z-score vs untreated DMSO wells; for pest or weed control at 45 µM: Meloidogyne incognita, 96 h
Procedure: M. incognita (Kofoid & White) Chitwood Race 1 (originally isolated in Maryland) was used for all experiments, and was maintained on pepper (Capsicum annuum L.) cv. PA-136 in a greenhouse as previously described^44. Infective J2 juveniles were collected as described in ref. 45. The microwell dose-response experiments were carried out similarly to previously described protocols^44,46. In brief, 50 μL of deionized water was added to the wells of 96-well polystyrene plates and 0.5 μL of test compound (or DMSO alone) was added to each well. Approximately 35 J2s were then added to each well in 49.5 μL of deionized water. The chemicals were tested at 45 μM, and the final concentration of DMSO in each well was 0.5% (v/v). DMSO alone was added to 3 separate wells. The plates were covered with plastic adhesive strips, and the lids of the plates were sealed with parafilm. The plates were incubated at 25° C. without shaking for 4 days. The percent of worms that were immobile (% immobile) was quantified by counting the number of immobile worms after 4 days of incubation, dividing the number of immobile worms by the total number of worms in the well, and then multiplying by 100. Two replicates were performed for each treatment. The z-score for each treatment was calculated using the mean and standard deviation of the untreated DMSO control wells. The average % immobile value was calculated across the two replicates. A test compound was considered most promising if the z-score was greater than 1.645 in both replicates.

[2] = system: M. hapla eggs; experiment: Meloidogyne hapla in vitro egg hatch assay; assay type: in vivo; details: 45 μM; for Number of Hatched Eggs: 8 days at room temperature, about 90 eggs per well, tested once; for Number of Hatched Eggs z-score: 8 days, z-score vs 8 untreated DMSO wells
Procedure: The M. hapla were originally obtained from a soil sample of muck soil from Ste-Clotilde, Quebec, Canada. Using tweezers, egg masses were carefully removed from root material from infested carrot roots. Eggs were liberated from the egg masses using a mild sodium hypochlorite bleaching protocol, whereby egg masses were bleached with a 10% commercial bleach (sodium hypochlorite) solution for 4 minutes with vigorous shaking, and then washed 5 times with deionized water. 50 μL of deionized water was added to each well of two 96-well polystyrene culture plates, and 0.5 μL of chemical (or DMSO alone) was added to each well. Approximately 90 eggs were added to each well in 49.5 ul of deionized water. The plates were sealed with parafilm and incubated for 8 days at room temperature without shaking in a Tupperware box filled with wet paper towels. After the 8-day incubation, the number of hatched eggs was counted for each treatment and for the untreated controls. Each chemical treatment was tested only once. 8 separate untreated DMSO controls were included in the experiment. The z-score for each treatment was calculated using the mean and standard deviation of the untreated DMSO control wells.

[3] = replicate 1, read-out: Replicate 1 % Immobile
[4] = replicate 2, read-out: Replicate 2 % Immobile
[5] = average of the two replicates, read-out: Average % Immobile

SMILES	Replicate 1 z-score ([1]; replicate 1)	Replicate 2 z-score ([1]; replicate 2)	pest or weed control at 45 µM [1, 3]	pest or weed control at 45 µM [1, 4]	Number of Hatched Eggs [2]	Number of Hatched Eggs ([2]; listed as 1-84)	Number of Hatched Eggs z-score [2]	pest or weed control at 45 µM [1, 5]	Number of Hatched Eggs ([2]; listed as 1-154)	Number of Hatched Eggs ([2]; listed as 1-161)
Brc1nn2cc(-c3ccccc3)nc2s1 [I-159]	[15.34]	[16.33]	97.8%	100%	–	–	–	–	–	–
Clc1ccc(-c2cn3ccsc3n2)s1 [I-84]	[13.56]	[16.33]	89.1%	100%	0	completely inhibited egg hatching	[4.63]	≥ 75%	–	–
Cc1cn2cc(-c3ccc(OC(F)F)cc3)nc2s1 [I-54]	[1.73]	[2.15]	31.1%	21.7%	–	–	–	26.4%	–	–
CCOc1ccc(-c2nc3sccn3c2C=O)cc1 [I-154]	[10.40]	[16.33]	73.6%	100%	0	–	[4.63]	≥ 75%	completely inhibited egg hatching	–
COc1c(-c2cn3ccsc3n2)ccc2ccccc12 [I-81]	–	–	–	–	3	–	[3.64]	–	–	–
COCc1nn2cc(-c3ccc(F)cc3)nc2s1 [I-141]	[1.89]	[4.06]	31.9%	32.2%	–	–	–	32.1%	–	–
c1ccc(-c2nc3sccn3n2)cc1 [I-116]	[4.40]	[2.43]	44.2%	23.2%	2	–	[3.97]	33.7%	–	–
O=Cc1c(-c2ccc(F)cc2)nc2sccn12 [I-157]	[15.40]	[15.24]	98%	94%	–	–	–	–	–	–
CCOC(=O)c1ccc(-c2cn3ccsc3n2)cc1 [I-72]	–	–	–	–	4	–	[3.31]	–	–	–
CCc1nn2cc(-c3ccc(C)cc3C)nc2s1 [I-129]	[2.18]	[1.78]	33.3%	19.6%	–	–	–	26.5%	–	–
COc1ccc(-c2cn3ccsc3n2)cc1 [I-142]	[2.76]	[1.68]	36.2%	19.1%	–	–	–	27.6%	–	–
Cc1csc(-c2cn3cc(C)sc3n2)c1 [I-161]	–	–	–	–	0	–	[4.63]	–	–	completely inhibited egg hatching
Fc1ccc(-c2cn3nc(Br)sc3n2)cc1 [I-113]	[15.80]	[15.32]	100%	94.4%	–	–	–	–	–	–
Cc1csc2nc(-c3ccc(Cl)s3)cn12 [I-85]	–	–	–	–	4	–	[3.31]	–	–	–
O=Cc1c(-c2ccc(Cl)cc2)nc2sccn12 [I-93]	[15.80]	[12.15]	100%	76.9%	–	–	–	≥ 75%	–	–
Cc1cn2cc(-c3cccs3)nc2s1 [I-78]	–	–	–	–	3	–	[3.64]	–	–	–
FC(F)(F)c1ccc(-c2cn3ccsc3n2)cc1 [I-68]	–	–	–	–	4	–	[3.31]	–	–	–
Nc1c(-c2ccc(Br)cc2)nc2sccn12 [I-118]	–	–	–	–	2	–	[3.97]	–	–	–
Cc1csc2nc(-c3ccc(OC(F)(F)F)cc3)cn12 [I-62]	–	–	–	–	3	–	[3.64]	–	–	–
